How the values were obtained:
KRAS WT = biological target: T1, KRAS WT (Homo sapiens, UniProt P01116); assay: HTRF assay, interaction of GST-tagged K-Ras with His-tagged hSOS1 (KRAS wildtype); format: biochemical; conditions: <500 nM, read-out: Inhibition of KRAS WT (IC50)
T1 construct: made in house; host or cells: E. coli BL21 (DE3)
Method in brief: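 GST-K-Ras (G12S or WT) with anti-GST-Eu donor mixed with His-hSOS1 and anti-6His-XL665 acceptor in ~5 mM HEPES pH 7.4, 150 mM NaCl, 1 mM DTT, 0.05% BSA, 0.0025% Igepal. After ~10 min or longer, HTRF 665/620 nm ratio read.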

KRAS G12S = biological target: T2, KRAS G12S (Homo sapiens, UniProt P01116, G12S); assay: HTRF assay, interaction of GST-tagged K-Ras with His-tagged hSOS1 (KRAS G12S); format: biochemical; conditions: <500 nM, read-out: Inhibition of KRAS G12S (IC50)
T2 construct: made in house; host or cells: E. coli BL21 (DE3)
Description: This assay can be also used to assess a selective inhibition or reduction of signaling output of a mutant Ras protein relative to a wildtype, or relative to a different mutant Ras protein. For example, the equilibrium interaction of wildtype KRAS or K-Ras mutant (e.g., wildtype or a mutant thereof) with SOS1 (e.g., hSOS1) can be assessed as a proxy or an indication for the ability of a subject compound to bind and inhibit Ras protein. The HTRF assay detects from (i) a fluorescence resonance energy transfer (FRET) donor (e.g., antiGST-Europium) that is bound to GST-tagged K-Ras mutant to (ii) a FRET acceptor (e.g., anti-6His-XL665) bound to a His-tagged hSOS1.
The assay buffer can contain ˜5 mM HEPES pH 7.4, ˜150 mM NaCl, ˜1 mM DTT, 0.05% BSA and 0.0025% (v/v) Igepal. A Ras working solution is prepared in an assay buffer containing typically a suitable amount of the protein construct (e.g., GST-tagged K-Ras mutant) and the FRET donor (e.g., antiGST-Eu(K) from Cisbio, France). A SOS1 working solution is prepared in an assay buffer containing suitable amount of the protein construct (e.g., His-hSOS1) and the FRET acceptor (e.g., anti-6His-XL665 from Cisbio, France). A suitable amount of the protein construct will depend on the range of activity or range of IC50 values being detected or under investigation. For detecting an IC50 within a range of 500 nM, the protein constructs of the same range of molarity can be utilized.
A fixed volume of DMSO with or without test compound is transferred into a 384-well plate. Ras working solution is added to all wells of the test plate. SOS1 working solution is added to all wells except for those that are subsequently filled with inhibitor control solution. Upon incubation for about 10 minutes or longer, the fluorescence is measured with a M1000Pro plate reader (Tecan) using HTRF detection (excitation 337 nm, emission 1: 620 nm, emission 2: 665 nm). Compounds are tested in duplicate at different concentrations (for example, 10 μM, 2.5 μM, 0.63 μM, 0.16 μM, 0.04 μM, 0.01 μM test compound). The ratiometric data (i.e., emission 2 divided by emission 1) is used to calculate IC50 values against Ras using GraphPad Prism (GraphPad software). Signaling output measured in terms of IC50 values can be obtained and a ratio of IC50 against one mutant relative to another mutant can be calculated. For instance, a selective reduction of K-Ras G12S signaling output can be evidenced by a ratio greater than one. In particular, a selective reduction of K-Ras G12S signaling relative to K-Ras WT signaling is evidenced if the ratio of IC50 (against K-Ras WT) to IC50 (against K-Ras G12S) is greater than 1.

T2 sequence (P01116 1-188 isoform P01116-2 G12S): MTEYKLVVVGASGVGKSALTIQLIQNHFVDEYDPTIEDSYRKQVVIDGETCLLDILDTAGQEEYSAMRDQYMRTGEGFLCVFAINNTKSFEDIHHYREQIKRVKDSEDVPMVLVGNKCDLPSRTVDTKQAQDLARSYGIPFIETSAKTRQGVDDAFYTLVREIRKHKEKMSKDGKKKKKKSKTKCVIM
T1 sequence (P01116 1-188 isoform P01116-2): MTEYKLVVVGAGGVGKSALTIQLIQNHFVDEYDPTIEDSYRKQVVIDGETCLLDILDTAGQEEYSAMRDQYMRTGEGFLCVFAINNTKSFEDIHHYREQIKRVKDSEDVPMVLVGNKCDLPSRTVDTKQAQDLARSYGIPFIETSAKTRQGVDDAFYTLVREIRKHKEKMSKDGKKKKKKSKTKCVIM

| Compound | IC50 (KRAS WT) | IC50 (KRAS G12S) |
| --- | --- | --- |
| Cc1cn(C(=O)N2CC[C@@H](N3C[C@H](C)Oc4nc(-c5cc(N)c(F)c(C)c5C(F)(F)F)c(F)c5nc(OC[C@@]67CCCN6C[C@H](F)C7)nc3c45)[C@H]2C)c(C)n1 [Compound 430, ((2R,3R)-3-((S)-5-(5-amino-4-fluoro-3-methyl-2-(trifluoromethyl)phenyl)-4-fluoro-2-(((2R,7aS)-2-fluorotetrahydro-1H-pyrrolizin-7a(5H)-yl)methoxy)-8-methyl-8,9-dihydro-10H-7-oxa-1,3,6,10-tetraazacyclohepta [de]naphthalen-10-yl)-2-methylpyrrolidin-1-yl)(2,4-dimethyl-1H-imidazol-1-yl)methanone] | < 500 nM | < 500 nM |
| Cc1cn(C(=O)N2CC[C@@H](N3CCCCc4nc(-c5cc(N)c(F)c(C)c5C(F)(F)F)c(F)c5nc(OC[C@@]67CCCN6C[C@H](F)C7)nc3c45)[C@H]2C)c(C)n1 [Compound 438, ((2R,3R)-3-(5-(5-amino-4-fluoro-3-methyl-2-(trifluoromethyl)phenyl)-4-fluoro-2-(((2R,7aS)-2-fluorotetrahydro-1H-pyrrolizin-7a(5H)-yl)methoxy)-7,8,9,10-tetrahydro-11H-1,3,6,11-tetraazacycloocta[de]naphthalen-11-yl)-2-methylpyrrolidin-1-yl)(2,4-dimethyl-1H-imidazol-1-yl)methanone] | < 500 nM | < 500 nM |
| C/C(C#N)=C\C(=O)N1CC(CN2CCOc3c(Cl)c(-c4ccc(F)c5sc(N)c(C#N)c45)c(F)c4nc(OC[C@@]56CCCN5C[C@H](F)C6)nc2c34)C1 [Compound 439, 2-amino-4-(8-chloro-4-((1-((E)-3-cyanobut-2-enoyl)azetidin-3-yl)methyl)-10-fluoro-2-(((2R,7aS)-2-fluorotetrahydro-1H-pyrrolizin-7a(5H)-yl)methoxy)-5,6-dihydro-4H-[1,4]oxazepino[5,6,7-de]quinazolin-9-yl)-7-fluorobenzo [b]thiophene-3-carbonitrile] | < 500 nM | < 500 nM |
| Cc1cn(C(=O)N2CC[C@@H](N3CCCCc4nc(-c5ccc(F)c6sc(N)c(C#N)c56)c(F)c5nc(OC[C@@]67CCCN6C[C@H](F)C7)nc3c45)[C@H]2C)c(C)n1 [Compound 454, 2-amino-4-(11-((2R,3R)-1-(2,4-dimethyl-1H-imidazole-1-carbonyl)-2-methylpyrrolidin-3-yl)-4-fluoro-2-(((2R,7aS)-2-fluorotetrahydro-1H-pyrrolizin-7a (5H)-yl)methoxy)-8,9,10,11-tetrahydro-7H-1,3,6,11-tetraazacycloocta[de]naphthalen-5-yl)-7-fluorobenzo[b]thiophene-3-carbonitrile] | < 500 nM | < 500 nM |
| C[C@@H]1CCOc2c(Cl)c(-c3ccc(F)c4sc(N)c(C#N)c34)c(F)c3nc(OC[C@@]45CCCN4C[C@H](F)C5)nc(c23)N1C[C@@H]1CN(C(=O)n2ccnc2)[C@@H]1C1(C)CC1 [Compound 455, 4-((5R)-4-(((2S,3R)-1-(1H-imidazole-1-carbonyl)-2-(1-methylcyclopropyl)azetidin-3-yl)methyl)-9-chloro-11-fluoro-2-(((2R,7aS)-2-fluorotetrahydro-1H-pyrrolizin-7a(5H)-yl)methoxy)-5-methyl-4,5,6,7-tetrahydro-[1,5]oxazocino[4,3,2-de]quinazolin-10-yl)-2-amino-7-fluorobenzo [b]thiophene-3-carbonitrile] | < 500 nM | < 500 nM |
| CC#CC(=O)N1CC(CN2CCOc3c(Cl)c(-c4ccc(F)c5sc(N)c(C#N)c45)c(F)c4nc(OC[C@@]56CCCN5C[C@H](F)C6)nc2c34)C1 [Compound 456, 2-amino-4-(4-((1-(but-2-ynoyl)azetidin-3-yl)methyl)-8-chloro-10-fluoro-2-(((2R,7aS)-2-fluorotetrahydro-1H-pyrrolizin-7a (5H)-yl)methoxy)-5,6-dihydro-4H-[1,4]oxazepino[5,6,7-de]quinazolin-9-yl)-7-fluorobenzo[b]thiophene-3-carbonitrile] | < 500 nM | < 500 nM |

Second part, the molecule after the results:

| IC50 (KRAS WT) | IC50 (KRAS G12S) | Compound |
| --- | --- | --- |
| < 500 nM | < 500 nM | C[C@@H]1[C@H](N2CCCc3nc(-c4ccc(F)c5sc(N)c(C#N)c45)c(F)c4nc(OC[C@@]56CCCN5C[C@H](F)C6)nc2c34)CCN1C(=O)n1cnc(Cl)n1 [Compound 433, 2-amino-4-(10-((2R,3R)-1-(3-chloro-1H-1,2,4-triazole-1-carbonyl)-2-methylpyrrolidin-3-yl)-4-fluoro-2-(((2R,7aS)-2-fluorotetrahydro-1H-pyrrolizin-7a(5H)-yl)methoxy)-7,8,9,10-tetrahydro-1,3,6,10-tetraazacyclohepta[de]naphthalen-5-yl)-7-fluorobenzo[b]thiophene-3-carbonitrile] |
| < 500 nM | < 500 nM | N#CCC1([C@@H]2[C@H](CN3CCOc4c(Cl)c(-c5ccc(F)c6sc(N)c(C#N)c56)c(F)c5nc(OC[C@@]67CCCN6C[C@H](F)C7)nc3c45)CN2C(=O)n2ccnc2)CC1 [Compound 442, 2-amino-4-(8-chloro-4-(((2S,3R)-2-(1-(cyanomethyl)cyclopropyl)-1-(1H-imidazole-1-carbonyl)azetidin-3-yl)methyl)-10-fluoro-2-(((2R,7aS)-2-fluorotetrahydro-1H-pyrrolizin-7a(5H)-yl)methoxy)-5,6-dihydro-4H-[1,4]oxazepino [5,6,7-de]quinazolin-9-yl)-7-fluorobenzo[b]thiophene-3-carbonitrile] |
| < 500 nM | < 500 nM | CC([C@H]1CCN1C(=O)n1cncn1)N1CCOc2c(Cl)c(-c3ccc(F)c4sc(N)c(C#N)c34)c(F)c3nc(OC[C@@]45CCCN4C[C@H](F)C5)nc1c23 (stereo partly drawn) [Compound 445, 4-(4-(1-((R)-1-(1H-1,2,4-triazole-1-carbonyl)azetidin-2-yl)ethyl)-8-chloro-10-fluoro-2-(((2R,7aS)-2-fluorotetrahydro-1H-pyrrolizin-7a (5H)-yl)methoxy)-5,6-dihydro-4H-[1,4]oxazepino[5,6,7-de]quinazolin-9-yl)-2-amino-7-fluorobenzo[b]thiophene-3-carbonitrile] |
| < 500 nM | < 500 nM | C=C(C(=O)N1CC(CN2CCOc3c(Cl)c(-c4ccc(F)c5sc(N)c(C#N)c45)c(F)c4nc(OC[C@@]56CCCN5C[C@H](F)C6)nc2c34)C1)C1CC1 [Compound 447, 2-amino-4-(8-chloro-4-((1-(2-cyclopropylacryloyl)azetidin-3-yl)methyl)-10-fluoro-2-(((2R,7aS)-2-fluorotetrahydro-1H-pyrrolizin-7a(5H)-yl)methoxy)-5,6-dihydro-4H-[1,4]oxazepino [5,6,7-de]quinazolin-9-yl)-7-fluorobenzo[b]thiophene-3-carbonitrile] |
| < 500 nM | < 500 nM | C[C@@H]1[C@H](N2CCCOc3c(Cl)c(-c4ccc(F)c5sc(N)c(C#N)c45)c(F)c4nc(OC[C@@]56CCCN5C[C@H](F)C6)nc2c34)CCN1C(=O)n1cnc(F)n1 [Compound 448, 2-amino-4-(9-chloro-11-fluoro-4-((2R,3R)-1-(3-fluoro-1H-1,2,4-triazole-1-carbonyl)-2-methylpyrrolidin-3-yl)-2-(((2R,7aS)-2-fluorotetrahydro-1H-pyrrolizin-7a(5H)-yl)methoxy)-4,5,6,7-tetrahydro-[1,5]oxazocino [4,3,2-de]quinazolin-10-yl)-7-fluorobenzo[b]thiophene-3-carbonitrile] |
| < 500 nM | < 500 nM | C[C@H](O)[C@H]1COc2c(Cl)c(-c3ccc(F)c4sc(N)c(C#N)c34)c(F)c3nc(OC[C@@]45CCCN4C[C@H](F)C5)nc(c23)N1CCN(C)C(=O)n1ccnc1 [Compound 449, N-(2-((5R)-9-(2-amino-3-cyano-7-fluorobenzo[b]thiophen-4-yl)-8-chloro-10-fluoro-2-(((2R,7aS)-2-fluorotetrahydro-1H-pyrrolizin-7a(5H)-yl)methoxy)-5-((S)-1-hydroxyethyl)-5,6-dihydro-4H-[1,4]oxazepino [5,6,7-de]quinazolin-4-yl)ethyl)-N-methyl-1H-imidazole-1-carboxamide] |
